In the OligoGym collection:
HELM strings list units from the 5' end as sugar, base in round brackets, then linkage (d deoxyribose, r ribose, m 2'-O-methyl, p phosphodiester). Strings are as the collection lists them; they lack the last nucleoside at the 3' end of the tested compound. [moe] = 2'-O-(2-methoxyethyl) (MOE); [sp] = phosphorothioate linkage; [m5C] = 5-methylcytosine

Molecular target: UBE3A-ATS
Test: mouse, dose not given
Details: ASO

| Substance | 3 h FOB score [score 0-7] |
| --- | --- |
| RNA1{[moe](G)[sp].[moe](T)p.[moe]([m5C])p.[moe](A)p.d(T)[sp].d([m5C])[sp].d(T)[sp].d([m5C])[sp].d(G)[sp].d(G)[sp].d(G)[sp].d(T)[sp].d(A)[sp].d(T)[sp].[moe](A)p.[moe](T)p.[moe](A)p.[moe](A)[sp].[moe](A)}$$$$ (last 3' nucleoside missing) | 4 |
| RNA1{[moe](G)[sp].[moe](T)p.[moe]([m5C])p.[moe](T)p.[moe](T)p.d([m5C])[sp].d(A)[sp].d(T)[sp].d(T)[sp].d(A)[sp].d(T)[sp].d(T)[sp].d([m5C])[sp].d(T)[sp].d([m5C])[sp].[moe](T)p.[moe](A)p.[moe](G)[sp].[moe](T)}$$$$ (last 3' nucleoside missing) | 4.7 |
| RNA1{[moe](G)[sp].[moe](T)p.[moe]([m5C])p.[moe](T)p.[moe]([m5C])p.d(T)[sp].d(G)[sp].d([m5C])[sp].d(T)[sp].d([m5C])[sp].d(A)[sp].d(G)[sp].d(T)[sp].d(T)[sp].d(A)[sp].[moe](G)p.[moe](G)p.[moe](T)[sp].[moe](T)}$$$$ (last 3' nucleoside missing) | 1 |
| RNA1{[moe](G)[sp].[moe](T)p.[moe]([m5C])p.[moe](T)p.[moe]([m5C])p.d([m5C])[sp].d([m5C])[sp].d(T)[sp].d([m5C])[sp].d(T)[sp].d(T)[sp].d(A)[sp].d(G)[sp].d(T)[sp].d(G)[sp].[moe](A)p.[moe](T)p.[moe](T)[sp].[moe](G)}$$$$ (last 3' nucleoside missing) | 4 |
| RNA1{[moe](G)[sp].[moe]([m5C])[sp].[moe]([m5C])[sp].[moe](T)[sp].[moe](A)[sp].d(A)[sp].d(T)[sp].d(A)[sp].d(T)[sp].d(G)[sp].d(T)[sp].d(G)[sp].d(T)[sp].d([m5C])[sp].d(A)[sp].[moe](T)[sp].[moe]([m5C])[sp].[moe]([m5C])[sp].[moe](T)}$$$$ (last 3' nucleoside missing) | 6.8 |
| RNA1{[moe](G)[sp].[moe]([m5C])[sp].[moe]([m5C])[sp].[moe]([m5C])[sp].[moe](A)[sp].d(T)[sp].d(G)[sp].d(G)[sp].d(A)[sp].d(T)[sp].d(G)[sp].d(G)[sp].d(T)[sp].d(T)[sp].d(G)[sp].[moe](T)[sp].[moe]([m5C])[sp].[moe](A)[sp].[moe](A)}$$$$ (last 3' nucleoside missing) | 7 |
| RNA1{[moe](G)[sp].[moe]([m5C])p.[moe](A)p.[moe](A)p.[moe](A)p.d(T)[sp].d(A)[sp].d([m5C])[sp].d(A)[sp].d(A)[sp].d(T)[sp].d(G)[sp].d(G)[sp].d(T)[sp].d(A)[sp].[moe](A)p.[moe](T)p.[moe]([m5C])[sp].[moe](G)}$$$$ (last 3' nucleoside missing) | 4.2 |
| RNA1{[moe](G)[sp].[moe]([m5C])p.[moe](A)p.[moe](A)p.[moe](T)p.d(G)[sp].d(G)[sp].d(A)[sp].d([m5C])[sp].d(T)[sp].d(T)[sp].d(A)[sp].d(G)[sp].d(T)[sp].d(A)[sp].[moe]([m5C])p.[moe](A)p.[moe]([m5C])[sp].[moe](A)}$$$$ (last 3' nucleoside missing) | 1 |
| RNA1{[moe](G)[sp].[moe]([m5C])p.[moe](A)p.[moe](G)p.[moe]([m5C])p.d(T)[sp].d([m5C])[sp].d(T)[sp].d(T)[sp].d(T)[sp].d(G)[sp].d(T)[sp].d(A)[sp].d(G)[sp].d(G)[sp].[moe]([m5C])p.[moe]([m5C])p.[moe]([m5C])[sp].[moe](A)}$$$$ (last 3' nucleoside missing) | 3.3 |
| RNA1{[moe](G)[sp].[moe]([m5C])p.[moe](A)p.[moe](T)[sp].d(A)[sp].d([m5C])[sp].d([m5C])[sp].d([m5C])[sp].d(A)[sp].d(G)[sp].d(G)[sp].d(G)[sp].[moe](T)p.[moe](A)p.[moe](G)p.[moe](G)[sp].[moe](A)}$$$$ (last 3' nucleoside missing) | 0 |
| RNA1{[moe](G)[sp].[moe]([m5C])p.[moe](A)p.[moe](T)p.[moe](A)[sp].d([m5C])[sp].d([m5C])[sp].d([m5C])[sp].d(A)[sp].d(G)[sp].d(G)[sp].d(G)[sp].d(T)[sp].[moe](A)p.[moe](G)p.[moe](G)[sp].[moe](A)}$$$$ (last 3' nucleoside missing) | 1 |
| RNA1{[moe](G)[sp].[moe]([m5C])p.[moe](A)p.[moe](T)p.[moe](A)p.[moe]([m5C])[sp].d([m5C])[sp].d([m5C])[sp].d(A)[sp].d(G)[sp].d(G)[sp].d(G)[sp].d(T)[sp].d(A)[sp].[moe](G)p.[moe](G)[sp].[moe](A)}$$$$ (last 3' nucleoside missing) | 1 |
| RNA1{[moe](G)[sp].[moe]([m5C])p.[moe](A)p.[moe](T)p.[moe](A)p.[moe]([m5C])p.d([m5C])[sp].d([m5C])[sp].d(A)[sp].d(G)[sp].d(G)[sp].d(G)[sp].d(T)[sp].d(A)[sp].d(G)[sp].d(G)[sp].[moe](A)p.[moe](T)[sp].[moe](T)}$$$$ (last 3' nucleoside missing) | 1 |
| RNA1{[moe](G)[sp].[moe]([m5C])p.[moe](A)p.[moe](T)p.[moe](A)p.d([m5C])[sp].d([m5C])[sp].d([m5C])[sp].d(A)[sp].d(G)[sp].d(G)[sp].d(G)[sp].d(T)[sp].d(A)[sp].d(G)[sp].[moe](G)p.[moe](A)p.[moe](T)[sp].[moe](T)}$$$$ (last 3' nucleoside missing) | 3 |
| RNA1{[moe](G)[sp].[moe]([m5C])p.[moe](A)p.[moe](T)p.[moe](G)p.d(A)[sp].d(T)[sp].d(T)[sp].d([m5C])[sp].d(T)[sp].d(A)[sp].d(A)[sp].d([m5C])[sp].d([m5C])[sp].d(A)[sp].[moe](T)p.[moe](A)p.[moe](G)[sp].[moe](A)}$$$$ (last 3' nucleoside missing) | 1 |
| RNA1{[moe](G)[sp].[moe]([m5C])p.[moe](A)p.[moe](T)p.[moe](G)p.d(T)[sp].d(G)[sp].d(G)[sp].d(G)[sp].d([m5C])[sp].d([m5C])[sp].d(T)[sp].d([m5C])[sp].d(T)[sp].d(A)[sp].[moe](T)p.[moe](T)p.[moe](A)[sp].[moe](A)}$$$$ (last 3' nucleoside missing) | 4 |
| RNA1{[moe](G)[sp].[moe]([m5C])p.[moe](A)p.[moe](T)p.[moe](T)p.d(G)[sp].d(G)[sp].d([m5C])[sp].d(T)[sp].d(T)[sp].d([m5C])[sp].d(A)[sp].d(T)[sp].d(A)[sp].d(T)[sp].[moe](T)p.[moe](T)p.[moe]([m5C])[sp].[moe](T)}$$$$ (last 3' nucleoside missing) | 1 |
| RNA1{[moe](G)[sp].[moe]([m5C])p.[moe](A)p.[moe](T)p.d(A)[sp].d([m5C])[sp].d([m5C])[sp].d([m5C])[sp].d(A)[sp].d(G)[sp].d(G)[sp].d(G)[sp].d(T)[sp].d(A)[sp].[moe](G)p.[moe](G)p.[moe](A)p.[moe](T)[sp].[moe](T)}$$$$ (last 3' nucleoside missing) | 1 |
| RNA1{[moe](G)[sp].[moe]([m5C])p.[moe](A)p.[moe]([m5C])p.[moe](A)p.d(T)[sp].d(A)[sp].d(G)[sp].d(A)[sp].d([m5C])[sp].d([m5C])[sp].d(A)[sp].d(T)[sp].d(A)[sp].d(G)[sp].[moe]([m5C])p.[moe](T)p.[moe](G)[sp].[moe](A)}$$$$ (last 3' nucleoside missing) | 3.3 |
